Legend:
5-HT1A = target: T1, 5-HT1A (Rattus norvegicus, UniProt P19327); assay: Antagonism of the discriminative stimulus properties induced by 8-OHDPAT in rats; assay type: in vivo, Male Wistar rats; design: from tissue; host or cells: whole living animal, male Wistar rats, s.c. dosing; conditions: s.c. before 8-OHDPAT, rats trained at 0.4 mg/kg i.p., inhibition of drug responding; for ED50, 8-OH DPAT cue antagonism: 0.4 mg/kg; for ED50: rat, sc, read-out: ED50, 8-OH DPAT cue antagonism
T1 sequence (P19327 1-422): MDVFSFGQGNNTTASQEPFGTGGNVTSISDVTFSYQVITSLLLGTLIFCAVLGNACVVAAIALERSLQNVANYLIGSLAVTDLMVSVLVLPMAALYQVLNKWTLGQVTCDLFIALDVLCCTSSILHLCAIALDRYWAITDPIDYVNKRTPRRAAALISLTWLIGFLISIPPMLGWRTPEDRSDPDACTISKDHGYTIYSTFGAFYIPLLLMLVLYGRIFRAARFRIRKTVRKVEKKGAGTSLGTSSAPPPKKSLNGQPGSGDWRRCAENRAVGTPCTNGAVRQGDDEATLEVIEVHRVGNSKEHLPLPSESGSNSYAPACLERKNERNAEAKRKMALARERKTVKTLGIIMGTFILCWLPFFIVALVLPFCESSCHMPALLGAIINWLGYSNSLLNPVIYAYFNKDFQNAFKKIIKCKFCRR
Description: ANTAGONISM OF THE DISCRIMINATIVE STIMULUS PROPERTIES INDUCED BY 8-OHDPAT IN RATS.
This test model is used to determine the antagonist effects of a test compound on 5-HT1A receptors in vivo. A related method is described by Tricklebank, M. D., J. Neill, E. J. Kidd and J. R. Fozard, Eur. J. Pharmacol. 133, 47-56, 1987; Arnt. J., Pharmacology & Toxicology 64, 165-172, 1989.
Male Wistar rats are trained to discriminate between 8-OHDPAT (0.4 mg/kg, i.p., 15 min. pretreatment) and physiological saline in operant chambers equipped with two response levers. Between the levers a dipper is placed, where water rewards (0.1 ml) are presented. The rats are water deprived for at least 24 h and work in a fixed ratio (FR) schedule (final FR=32).
Following 8-OHDPAT administration responding is reinforced only on a designated (drug) lever, whereas responding on the opposite lever has no consequences. Following saline administration responding is reinforced on the lever opposite to the drug lever. Drug and saline trials alternate randomly between training days, although the same treatment is given maximally at 3 consecutive days. The level of discrimination occuracy is expressed as the per cent drug responses and is calculated as the number of correct responses×100 divided by the sum of the correct and incorrect responses before the first reward. When stable occuracy (mean correct responding=90 per cent; individual rats at least 75 per cent correct responding) is obtained test sessions are included between training days. Test compound is injected s.c. at appropriate time before 8-OHDPAT and the test begins 15 min after 8-OHDPAT injection. The test trial is terminated when a total of 32 responses are made on either lever or when 20 min have elapsed. No reward is given and the rats have free access to water for 20-30 min after the test. The effects are expressed as per cent inhibition of drug responding. Only results from rats making at least 10 responses on one lever are included in data analysis. Furthermore, only test sessions in which at least half of the rats respond are included.
The per cent inhibition of drug response obtained for each dose of test compound is used to calculate ED50 values by log-probit analysis.

[1] = target: T2, serotonin 5-HT1A receptors (Rattus norvegicus, UniProt P19327); assay: Inhibition of 3H-8-OHDPAT binding to serotonin 5-HT1A receptors in rat brain in vitro; conditions: 3H-8-OHDPAT 1 nM, rat brain membranes minus cerebellum, 37° C., 15 min; read-out: IC50 (3H 8-OH DPAT binding)
T2 construct: membranes from rat brain minus cerebellum; from tissue; host or cells: brain minus cerebellum of male Wistar (Mol:Wist) rats, membranes
T2 sequence (P19327 1-422): T1 sequence (P19327 1-422)
Description: INHIBITION OF ^3 H-8-OHDPAT BINDING TO SEROTONIN 5-HT1A RECEPTORS IN A RAT BRAIN IN VITRO
By this method the inhibition by drugs of the binding of ^3 H-8-OHDPAT (1 nM) to serotonin 5-HT1A receptors in membranes from rat brain minus cerebellum is determined in vitro.
Male Wistar (Mol:Wist) rats (125-250 g) are sacrificed and the brain is dissected and weighed. The brain tissue minus cerebellum is homogenized (Ultra Turrax, 20 sec) in 10 ml of ice cold 50 mM Tris buffer pH 8.0 (at 25° C.) containing 120 mM NaCl, 4 mM CaCl2 and 4 mM MgCl2. The homogenate is centrifuged at 20,000 g for 10 min at 4° C. The pellet is homogenized in 10 ml of buffer and incubated at 37° C. for 10 min. The homogenate is centrifuged as above and the pellet is homogenized in 100 vol (w/v) ice cold buffer containing 10 μ M of parglyine.
Incubation tubes kept on ice in triplicate receive 100 μl of drug solution in water (or water for total binding) and 1000 μ l of tissue suspension (final tissue content corresponds to 10 mg original tissue). The binding experiment is initiated by addition of 100 μ l of ^3 H-8-OHDPAT (final concentration 1 nM) and by placing the tubes in a 37° C. water bath. After incubation for 15 min the samples are filtered under vacuum (0-50 mBar) through Whatman GF/F filters ([…]). The tubes are rinsed with 5 ml ice cold 0.9% NaCl which are then poured on the filters. Thereafter, the filters are washed with 2×5 ml 0.9% NaCl. The filters are placed in counting vials and 4 ml of appropriate scintillation fluid (e.g. Picofluor™15) are added. After shaking for 1 h and storage 2 h in the dark the content of radioactivity is determined by liquid scintillation counting. Specific binding is obtained by subtracting the nonspecific binding in the presence of 10 μ M of 5-HT.
For determination of the inhibition of binding five concentrations of drugs covering 3 decades are used.
The IC50 -value is determined as the concentration, at which the binding is 50% of the total binding in control samples minus the nonspecific binding in the presence of 10 μM of 5-HT.
^3 H-8-OHDPAT from Amersham International plc. England. Specific activity approximately 200 Ci/mmol).

ED50, 8-OH DPAT cue antagonism (5-HT1A)	IC50 [1]	ED50 (5-HT1A)	Compound
1.0 µmol/kg	13 nM		COc1ccccc1N1CCN(CCCCC2CNc3ccccc32)CC1 (single isomer, unassigned; (+)) [Compound 7a, (+)-3-[4-[4-(2-methoxyphenyl)-1-piperazinyl]-1-butyl]-1H-2,3-dihydroindole]
> 3.4 µmol/kg	8.6 nM		COc1ccccc1N1CCN(CCCCC2CNc3ccccc32)CC1 (single isomer, unassigned; (-)) [Compound 7b, (-)-3-[4-[4-(2-methoxyphenyl)-1-piperazinyl]-1-butyl]-1H-2,3-dihydroindole]
	14 nM	7.2 µmol/kg	COc1ccccc1N1CCN(CCCCC2CNc3ccccc32)CC1 (stereo not drawn) [Compound 3a, 3-[4-[4-(2-methoxyphenyl)-1-piperazinyl]-1-butyl]-1H-2,3-dihydroindole]
	11 nM	4.8 µmol/kg	CCOc1ccccc1N1CCN(CCCCC2CNc3ccccc32)CC1 (stereo not drawn) [Compound 3c, 3-[4-[4-(2-ethoxyphenyl)-1-piperazinyl]-1-butyl]-1H-2,3-dihydroindole]
	9.4 nM	> 9 µmol/kg	c1ccc2c(c1)NCC2CCCCN1CCN(c2cccc3c2OCC3)CC1 (stereo not drawn) [Compound 3i, 3-[4-[4-(2,3-dihydro-7-benzofuranyl)-1-piperazinyl]-1-butyl]-1H-2,3-dihydroindole]
	3.3 nM	8.8 µmol/kg	c1ccc2c(c1)NCC2CCCCN1CCN(c2cccc3c2OCCO3)CC1 (stereo not drawn) [Compound 3j, 3-[4-[4-(1,4-benzodioxan-5-yl)-1-piperazinyl]-1-butyl]-1H-2,3-dihydroindole]

Reference: patent US5002948A, “3-[4-[4-substituted-1-piperazinyl]-1-butyl]-1H-2,3-dihydroindoles” (H. Lundbeck A/S, priority 1988, dated 1991)
